Source: patent US6680282B2 (priority 1997, dated 2004)

System: Sphaerotheca fuliginea
Assay: Test for control effect against powdery mildew of Cucurbitaceae (spray on cucumber seedlings)
Assay type: in vivo
Conditions: 200 ppm spray, cucumber first foliage leaf, 10 days after inoculation
Text: Test for Control Effect Against Powdery Mildew of Cucurbitaceae
A spray liquid comprising a test compound whose concentration was adjusted to be 200 ppm by dilution with water was sprayed to a cucumber grown in a vinyl pot of 3 cm in diameter when its first foliage leaf was developed. The air-dried cucumber seedling was inoculated with a conidium suspension of Sphaerotheca fuliginea. Thereafter, the cucumber seedling was transferred in an air-conditioned greenhouse. 10 Days after the inoculation, the disease severity was observed. The protective value was calculated by comparing the disease severity in a treated area with that in an untreated area. Then, control effect was ranked according to the following criterion.
B; protective value 50 to 79%

SMILES	rank (control effect, protective value from disease severity)
CC(=O)Oc1c(C)c(C)nc2ccc(Br)cc12 [compound 185]	A (protective value ≧80%)
CCc1cc(CC)c2nc(C)c(C)c(OC(C)=O)c2c1 [Compound No. 268]	B (protective value 50 to 79%)
CC(=O)Oc1c(C)c(C)nc2ccc(CC(C)C)cc12 [compound 93]	A (protective value ≧80%)
CCC(C)c1ccc2nc(C)c(C)c(OC(=O)Oc3ccccc3)c2c1 (stereo not shown) [compound 68]	A (protective value ≧80%)
CC(=O)Oc1c(C)c(C)nc2c(Cl)cc(C(C)(C)C)cc12 [Compound No. 218]	A (protective value ≧80%)
CC(=O)Oc1c(C)c(C)nc2ccc(Oc3ccccc3)cc12 [Compound No. 136]	A (protective value ≧80%)
CCC(C)c1ccc2nc(C)c(C)c(OC(=O)CC(C)C)c2c1 (stereo not shown) [compound 176]	A (protective value ≧80%)
C=CCC(=O)Oc1c(C)c(C)nc2ccc(C(C)CC)cc12 (stereo not shown) [compound 175]	A (protective value ≧80%)
CC(=O)Oc1c(C)c(C)nc2cc(C)c(Br)cc12 [compound 196]	A (protective value ≧80%)
CCC(C)c1ccc2nc(C)c(C)c(OC(=O)N(C)C)c2c1 (stereo not shown) [compound 71]	A (protective value ≧80%)

System: Pyricularia oryzae
Assay: whole plant or invertebrate
Assay type: in vivo
Conditions: 100 ppm spray, rice seedling (Jikkoku) 4-leaf stage, lesion number on fourth leaf 6 days after inoculation

SMILES	rank (control effect, protective value from lesion number)
CC(=O)Oc1c(C)c(C)nc2ccc(Br)cc12 [compound 185]	B (protective value 50 to 79%)
Cc1nc2ccc(Br)c(C)c2c(O)c1C [compound 191]	A (protective value ≧80%)
CCc1cc(CC)c2nc(C)c(C)c(OC(C)=O)c2c1 [Compound No. 268]	A (protective value ≧80%)
CCC(C)c1ccc2nc(C)c(C)c(OC(=O)c3ccc([N+](=O)[O-])cc3)c2c1 (stereo not shown) [compound 171]	B (protective value 50 to 79%)
Cc1nc2c(C)cc(Br)cc2c(O)c1C [compound 190]	B (protective value 50 to 79%)
CCCCc1ccc2nc(CCCC)c(C)c(OC(C)=O)c2c1 [compound 49]	A (protective value ≧80%)
CC(=O)Oc1c(C)c(C)nc2ccc(CC(C)C)cc12 [compound 93]	A (protective value ≧80%)
CCCc1ccc2nc(C)c(C)c(OC(C)=O)c2c1 [compound 14]	A (protective value ≧80%)
CCC(C)c1ccc2nc(C)c(C)c(OC(=O)Oc3ccccc3)c2c1 (stereo not shown) [compound 68]	A (protective value ≧80%)
CCCCc1cc(Br)c2nc(C)c(C)c(O)c2c1 [compound 186]	B (protective value 50 to 79%)
CC(=O)Oc1c(C)c(C)nc2c(C)cc(C3CCCC3)cc12 [Compound No. 352, 4-Acetoxy-6-c-pentyl-8-methyl-2,3-dimethylquinoline]	A (protective value ≧80%)
CC(=O)Oc1c(C)c(C)nc2c(C)cc(F)cc12 [compound 198]	B (protective value 50 to 79%)
CC(=O)Oc1c(C)c(C)nc2c(Cl)cc(C(C)(C)C)cc12 [Compound No. 218]	A (protective value ≧80%)
CCCCCC(=O)Oc1c(C)c(C)nc2ccc(C(C)CC)cc12 (stereo not shown) [compound 173]	A (protective value ≧80%)
CC(=O)Oc1c(C)c(C)nc2ccc(Oc3ccccc3)cc12 [Compound No. 136]	A (protective value ≧80%)
Cc1cc2nc(C)c(C)c(O)c2cc1Br [compound 192]	A (protective value ≧80%)
CC(=O)Oc1c(C)c(C)nc2ccc(C)cc12 [Compound No. 2]	B (protective value 50 to 79%)
CC=C(C)c1ccc2nc(C)c(C)c(O)c2c1 [compound 199]	A (protective value ≧80%)
Cc1nc2ccc(C(C)(C)C)cc2c(O)c1C [compound 83]	A (protective value ≧80%)
CCC(C)c1ccc2nc(C)c(C)c(OC(=O)C3CC3)c2c1 (stereo not shown) [compound 57]	A (protective value ≧80%)
CCCCCCc1ccc2nc(C)c(C)c(O)c2c1 [Compound No. 107]	A (protective value ≧80%)
CCc1ccc2nc(C)c(C)c(O)c2c1 [Compound No. 9]	A (protective value ≧80%)
CCCCOC(=O)Oc1c(C)c(C)nc2ccc(C(C)CC)cc12 (stereo not shown) [compound 179]	A (protective value ≧80%)
CC=C(C)c1ccc2nc(C)c(C)c(OC(C)=O)c2c1 [compound 200]	A (protective value ≧80%)
Cc1nc2ccc(OC(C)C)cc2c(O)c1C [compound 23]	B (protective value 50 to 79%)

SMILES	rank (control effect, protective value from lesion number)
CCC(C)c1ccc2nc(C)c(C)c(OC(=O)c3ccc(OC)cc3)c2c1 (stereo not shown) [compound 62]	A (protective value ≧80%)
Cc1nc2ccc(C(F)(F)F)cc2c(O)c1C [Compound No. 131]	B (protective value 50 to 79%)
CCCCc1ccc2nc(CCC)c(C)c(OC(C)=O)c2c1 [compound 48]	A (protective value ≧80%)
CCCCc1ccc2nc(CC)c(C)c(OC(C)=O)c2c1 [compound 47]	A (protective value ≧80%)
Cc1nc2c(F)cc(Br)cc2c(O)c1C [compound 193]	A (protective value ≧80%)
CCC(C)c1ccc2nc(C)c(C)c(OC(=O)Cc3ccccc3)c2c1 (stereo not shown) [compound 172]	A (protective value ≧80%)
CCCCCCCCc1ccc2nc(C)c(C)c(O)c2c1 [Compound No. 125]	B (protective value 50 to 79%)
CCCCc1ccc2nc(C)c(CCCC)c(OC(C)=O)c2c1 [compound 46]	A (protective value ≧80%)
CC(=O)Oc1c(C)c(C)nc2ccc(C(C)(C)C)cc12 [compound 84]	A (protective value ≧80%)
Cc1nc2ccc(C3CCCCC3)cc2c(O)c1C [Compound No. 111]	B (protective value 50 to 79%)
CC(=O)Oc1c(C)c(C)nc2c(C(C)C)cc(C(C)C)cc12 [Compound No. 274]	A (protective value ≧80%)
CCC(C)c1ccc2nc(C)c(C)c(O)c2c1 (stereo not shown) [compound 54]	A (protective value ≧80%)
CCCCc1ccc2nc(C)c(CC)c(OC(C)=O)c2c1 [compound 44]	A (protective value ≧80%)
CCC(C)c1ccc2nc(C)c(C)c(OC(=O)C3CCCCC3)c2c1 (stereo not shown) [compound 170]	A (protective value ≧80%)
CCCCCCCC(=O)Oc1c(C)c(C)nc2ccc(C(C)CC)cc12 (stereo not shown) [compound 180]	A (protective value ≧80%)
CCCCCCCCc1ccc2nc(C)c(C)c(OC(C)=O)c2c1 [Compound No. 126]	A (protective value ≧80%)
CCc1cccc2nc(C)c(C)c(OC(C)=O)c12 [compound 182]	B (protective value 50 to 79%)
Cc1nc2ccc(CC(C)C)cc2c(O)c1C [compound 92]	B (protective value 50 to 79%)
CCCc1ccc2nc(C)c(C)c(O)c2c1 [Compound No. 13]	A (protective value ≧80%)
CCc1ccc2c(OC(C)=O)c(C)c(C)nc2c1 [compound 183]	B (protective value 50 to 79%)
CCC(C)c1ccc2nc(C)c(C)c(OC(=O)Oc3ccc(OC)cc3)c2c1 (stereo not shown) [compound 69]	A (protective value ≧80%)
CC(=O)Oc1c(C)c(C)nc2c(C)cc(C)cc12 [Compound No. 262]	B (protective value 50 to 79%)
CCC(C)c1ccc2nc(C)c(C)c(OC(=O)c3ccc(Cl)cc3)c2c1 (stereo not shown) [compound 63]	A (protective value ≧80%)
CCC(C)c1ccc2nc(C)c(C)c(OC(=O)Oc3ccc(Cl)cc3)c2c1 (stereo not shown) [compound 70]	A (protective value ≧80%)
CCCCCCc1ccc2nc(C)c(C)c(OC(C)=O)c2c1 [Compound No. 108]	A (protective value ≧80%)

Same assay, conditions: Pyricularia oryzae, foliar, 144 h, read-out: rank (control effect, protective value from lesion number)

SMILES	pest or weed control at 100 ppm [%]
CCC(C)c1cc(OC)c2nc(C)c(C)c(OC(C)=O)c2c1 (stereo not shown) [Compound No. 220, 4-acetoxy-6-s-butyl-8-methoxy-2,3-dimethylquinoline]	> 80
CCC(C)c1cc(C)c2nc(C)c(C)c(OC(C)=O)c2c1 (stereo not shown) [Compound No. 206, 4-acetoxy-6-s-butyl-2,3,8-trimethylquinoline]	> 80
CC=C(C)c1cc(C)c2nc(C)c(C)c(OC(C)=O)c2c1 [Compound No. 360, 4-acetoxy-6-(2-buten-2-yl)-2,3,8-trimethylquinoline]	> 80
CCCCCc1ccc2nc(C)c(C)c(O)c2c1 [Compound No. 97, 4-hydroxy-2,3-dimethyl-6-n-pentyl-quinoline]	50 to 79
CC=C(C)c1cc(F)c2nc(C)c(C)c(OC(C)=O)c2c1 [Compound No. 362, 4-acetoxy-6-(2-buten-2-yl)-8-fluoro-2,3-dimethylquinoline]	> 80
CCC(C)c1cc(F)c2nc(C)c(C)c(OC(C)=O)c2c1 (stereo not shown) [Compound No. 212, 4-acetoxy-6-s-butyl-8-fluoro-2,3-dimethylquinoline]	> 80
CCCCCc1ccc2nc(C)c(C)c(OC(C)=O)c2c1 [Compound No. 98, 4-acetoxy-2,3-dimethyl-6-n-pentyl-quinoline]	> 80
